From PMC11241769, “Comprehensive Characterization of Phytochemical Composition, Membrane Permeability, and Antiproliferative Activity of Juglans nigra Polyphenols” (International Journal of Molecular Sciences, 2024) come the findings set out here.

Where two headings read alike, the source gives them in different places.

As a reminder, the IC50 is the concentration that gives 50% inhibition. Usually inhibition stands for how much of the control response was suppressed.

For data set [1], the system named is HT-29 colorectal carcinoma cells. The data set can be described thus: in vitro cytostatic (antiproliferative) activity, Alamar Blue (resazurin) assay, HT-29. The data set is classed as cell-based. The following applies: Homo sapiens. The protocol: (§1) For the evaluation of the in vitro antiproliferative activity of the compounds, the cell viability was determined by resazurin (Alamar Blue) assay on MDA-MB 231 breast carcinoma, A2058 melanoma, and HT-29 colon carcinoma cell culture. The control wells were treated only with serum-free medium.
(§2) The cytostatic effect of the compounds was studied on tumor cell cultures in vitro. MDA-MB-231 human breast adenocarcinoma cells were cultured in DMEM medium supplemented with 10% FBS, 2 mM L-glutamine, penicillin–streptomycin antibiotics mixture (50 IU/mL, and 50 μg/mL, respectively), 1 mM sodium pyruvate, and 1% non-essential amino acid mixture. A2058 human melanoma cells, and HT-29 colorectal carcinoma cells were cultured in RPMI medium supplemented with 10% FBS, 2 mM L-glutamine, and penicillin–streptomycin antibiotics mixture (50 IU/mL and 50 μg/mL, respectively). Cell lines were generous gifts from Dr. József Tóvári (Department of Experimental Pharmacology, National Institute of Oncology, Budapest, Hungary).
(§3) All cell cultures were maintained at 37 °C in a humidified atmosphere with 5% CO2. The cells were grown to confluence and then divided into 96-well tissue culture plates with the initial cell number of 5.0 × 10^3 cells/well. […] Control cells were treated with serum-free medium or DMSO (c = 1.0 v/v %) at the same conditions. After this incubation period, cells were washed twice with serum-free medium, and following that, they were cultured for another 72 h in a 10% serum-containing medium at 37 °C. After that, cell viability was determined using the Alamar Blue assay. Alamar Blue is a non-toxic, resazurin-based dye that living cells reduce to a fluorescent molecule, resorufin [99]. Resazurin sodium salt (Merck, Darmstadt, Germany) was dissolved in PBS at c = 0.15 mg/mL, pH 7.4). A measure of 22 uL of the dye was added to each well and incubated at 37 °C for 3 h until the pink color of the reduced dye appeared. Fluorescence intensity in each well was measured using a Synergy H4 multimode microplate reader (BioTek, Winooski, VT); at λex = 530/30 and λem = 610/10 nm.
(§4) The cytostasis values were expressed in the percentage of untreated control.

Data set [2] deals with MDA-MB-231 human breast adenocarcinoma cells. The data set can be described thus: in vitro cytostatic (antiproliferative) activity, Alamar Blue (resazurin) assay, MDA-MB 231. The data set is classed as cell-based. The protocol:
as §1, §2, §3, §4

Data set [3] concerns Vero E6 non-tumorous kidney cells. The data set can be described thus: selectivity study: cytostatic activity on non-tumorous Vero E6 cells, Alamar Blue assay. In kind it is cell-based, African green monkey (C. sabaeus). As for the experimental part:
(§5) To determine the selectivity, we assessed the compounds on the Vero E6 non-tumorous kidney cells from African green monkeys (C. sabaeus), and their cytostatic activity was determined (Table 3).
(§6) For the selectivity study, a non-human primate cell culture was used. Vero E6 cells were established from kidney tissue sampled from an African green monkey (C. sabaeus) They originated from a primary culture initiated in March 1962 by Yoshihiro Yasumura at Chiba University in Japan. Vero E6 cells were obtained from the European Collection of Authenticated Cell Cultures (ECACC 85020206) and maintained in DMEM high-glucose (4.5 g/L) medium (Lonza, Basel, Switzerland) containing 10% FBS (Gibco, Thermo Fisher Scientific) and supplemented with 2 mM of L-glutamine (Lonza), 1 mM sodium pyruvate (Merck), and CellCultureGuard (PanReacApplichem, ITW Reagents, Darmstadt, Germany) at 37 °C in a humidified atmosphere of 5% CO2.
as §3, §4
(In general: Alamar Blue is a resazurin reagent that responds to reducing activity.)

For data set [4], the system named is A2058 human melanoma cells. The data set can be described thus: in vitro cytostatic (antiproliferative) activity, Alamar Blue (resazurin) assay, A2058. The data set is classed as cell-based. As for the experimental part: as §1, §2, §3, §4
For data set [5], the system named is MDA-MB 231, A2058, HT-29 and Vero E6 cells. The data set can be described thus: in vitro cytostasis, Alamar Blue assay, cell lines taken together. The data set is classed as cell-based. The following applies: for effect on the tumor cell lines: tumor cell lines (MDA-MB 231, A2058, HT-29). The protocol:
as §1, §5, §2, §6, §3, §4

The nature of data set [6]: PAMPA-BBB (parallel artificial membrane permeability assay, porcine polar brain lipid extract). Particulars: for logPe PAMPA-BBB (n = 9): donor pH 7.4, acceptor pH 7.4, 37 °C, 4 h, n.d. = not detected in the acceptor phase. In kind it is in vitro ADME. As for the experimental part:
(§7) For the PAMPA-BBB test, 5 μL of porcine polar brain lipid extract (PBLE) solution (16.0 mg PBLE + 8.0 mg cholesterol dissolved in 600.0 μL n-dodecane) was applied for each well of the 96-well polycarbonate-based filter donor plates (top plate) (Multiscreen™-IP, MAIPN4510, pore size 0.45 μm; Merck). For the PAMPA-GI assay, the wells of the top plate were coated with 5 μL of the mixture of 16.0 mg phosphatidylcholine + 8.0 mg cholesterol dissolved in 600.0 μL n-dodecane. A measure of 150.0 μL of aliquots of the filtrated donor solutions were placed on the membrane. The 96-well PTFE acceptor plates (bottom plates) (Multiscreen Acceptor Plate, MSSACCEPTOR; Merck), were filled with 300.0 μL buffer solution (0.01 M PBS buffer, pH 7.4). The donor plate was placed upon the acceptor plate, and both plates were incubated together at 37 °C for 4 h in a Heidolph Titramax 1000 Vibrating platform shaker (Heidolph, Schwabach, Germany).
(§8) After incubation, sandwich plates were separated and the concentrations of each compound in the starting donor solution and in the acceptor and donor wells were determined in triplicate by UHPLC-DAD method described above. […] The effective permeability and the membrane retention in the PAMPA-BBB and the PAMPA GI experiments were calculated by Equations (4)–(7), respectively:(4) Pe=−2.303/A(t−τSS)·VA·VD/VA+VD·lg1−VA+VD/1−MR·VD×CAt/CD0 (5) Pe=−2.303/A(t−τSS)·1/1+ra·lg−ra+1+ra/1−MR×CDt/CD0 where Pe is the effective permeability coefficient (cm/s), A is the filter area (0.24 cm^2), VD and VA are the volumes in the donor (0.15 cm^3) and acceptor phases (0.30 cm^3), t is the incubation time (s), τSS is the time (s) to reach steady-state (240 s), CD(t) is the concentration (mol/cm^3) of the compound in the donor phase at time t, CD(0) is the concentration (mol/cm^3) of the compound in the donor phase at time 0, and MR is the estimated membrane retention factor (the estimated mole fraction of solute lost to the membrane), ra is the sink asymmetry ratio (gradient-pH-induced), defined as:(6) ra=VD/VA×Pe(A→D)/Pe(D→A) (7) MR=1−CDt/CD0−VA/VDCAt/CD0
(§9) All experiments were performed in three triplicates on three consecutive days (n = 9), caffeine standard was used as positive, while rutin as negative control. ClogP values were calculated by ChemAxon Marvin 22.3.
On the technique in general: PAMPA measures passive passage across an artificial lipid membrane.

A short description of data set [7]: PAMPA-GI (parallel artificial membrane permeability assay, phosphatidylcholine membrane). In kind it is in vitro ADME. Particulars: for logPe PAMPA-GI (n = 9): donor pH 6.8, acceptor pH 7.4, 37 °C, 4 h, n.d. = not detected in the acceptor phase. The protocol:
as §7, §8, §9

Where [8] appears, read: HT-29, read-out: IC50 (µM) HT-29.
[9] abbreviates: MDA-MB-231, read-out: IC50 (µM) MDA-MB 231.
The mark [10] stands for this setting: Chlorocebus sabaeus, Vero C1008, read-out: IC50 (µM) VERO E6 Non Tumorous.
[11] abbreviates: A2058, read-out: IC50 (µM) A2058.
[12] abbreviates: in vitro cytostatic activity, Alamar Blue (resazurin) assay, HT-29 colon carcinoma cell culture, read-out: IC50 (µM) HT-29.
[13] abbreviates: in vitro cytostatic activity, Alamar Blue (resazurin) assay, MDA-MB 231 breast carcinoma cell culture, read-out: IC50 (µM) MDA-MB 231.
The mark [14] stands for this setting: Chlorocebus sabaeus, Vero C1008, in vitro cytostatic activity, Alamar Blue assay, Vero E6 non-tumorous kidney cells, read-out: IC50 (µM) VERO E6 Non Tumorous.
[15] abbreviates: in vitro cytostatic activity, Alamar Blue (resazurin) assay, A2058 melanoma cell culture, read-out: IC50 (µM) A2058.

For the compound `CC1OC(Oc2c(-c3ccc(O)c(O)c3)oc3cc(O)cc(O)c3c2=O)C(O)C(O)C1O` (centres unmarked) [quercetin-3-O-rhamnoside (106)], the IC50 in data set [1] (setting [8]) is more than 100 µM; in data set [2] (setting [9]), more than 100 µM; in data set [3] (setting [10]), 15.9 ± 0.7 µM; in data set [4] (setting [11]), more than 100 µM.

For the compound `CC1OC(Oc2c(-c3cc(O)c(O)c(O)c3)oc3cc(O)cc(O)c3c2=O)C(O)C(O)C1O` (centres unmarked) [myricetin-3-O-rhamnoside (86)], the IC50 is more than 100 µM in data set [1] (setting [12]), more than 100 µM in data set [2] (setting [13]), 3.7 ± 0.7 µM in data set [3] (setting [14]) and more than 100 µM in data set [4] (setting [15]).

For the compound `O=c1c(OC2OCC(O)C(O)C2O)c(-c2ccc(O)c(O)c2)oc2cc(O)cc(O)c12` (centres unmarked) [quercetin-3-O-xyloside (74)], the concentration for half-maximal inhibition (IC50) in data set [1] (setting [12]), in data set [2] (setting [13]), in data set [3] (setting [14]) and in data set [4] (setting [15]) was more than 100 µM throughout.

On to “myricetin-3-O-rhamnoside (myricitrin) [Compound 86]”, for which the “effect on the tumor cell lines” value in data set [5] is on record as “no effect”. The IC50 in data set [3] (Vero E6 non-tumorous kidney cells, selectivity, read-out: IC50 (cytostatic activity) on the Vero E6 cells) amounted to 3.7 µM.

Consider `O=C(OCC1OC(OC2CCC(=O)c3ccc(O)c(O)c32)C(O)C(O)C1O)c1cc(O)c(O)c(O)c1` [Compound 92, 1,2,3,4-tetrahydro-7,8-dihydroxy-4-oxonaphthalen-1-yl-6-O-[(3,4,5-trihydroxyphenyl)carbonyl]-β-D-glucopyranoside], for which the half-inhibitory concentration (IC50) in data set [1] (setting [12]) is more than 100 µM; in data set [2] (setting [13]), more than 100 µM; in data set [3] (setting [14]) it was 61.1 ± 5.3 µM; in data set [4] (setting [15]) it was more than 100 µM. Also, in data set [6], the “logPe PAMPA-BBB (n = 9)” value is “not detected in the acceptor phase”. Besides, in data set [5], the “effect on the tumor cell lines” value is listed as “no effect”. The “logPe PAMPA-GI (n = 9)” value in data set [7] is listed as “not detected in the acceptor phase”.

Turning to `O=c1oc2c(O)c(O)cc3c(=O)oc4c(O)c(O)cc1c4c23` [Compound 143, ellagic acid], the inhibition at 100 µM in data set [1] (read-out: % inhibition at 100 µM, 100 µM, HT-29 cell culture) came to 33%. The IC50 in data set [1] (HT-29 colon carcinoma, treatment overnight, then 72 h culture, Alamar Blue, read-out: IC50 on HT-29 cell culture) was 12.1 µM; in data set [1] (setting [12]), more than 100 µM; in data set [2] (setting [13]), more than 100 µM; in data set [3] (setting [14]), more than 100 µM; in data set [4] (setting [15]), more than 100 µM. In data set [6], the “logPe PAMPA-BBB (n = 9)” value is given as “less than −6.0”. Further, the Papp at 4 h, 100 µM in data set [6] (pig, PAMPA, pH 7.4, read-out: logPe PAMPA-BBB (n = 9) (converted)) is 0.224 ×10⁻⁶ cm/s; in data set [7] (PAMPA, read-out: logPe PAMPA-GI (n = 9) (converted)) it was 0.741 ×10⁻⁶ cm/s. Moreover, in data set [3] (Vero E6 non-tumorous kidney cells, selectivity), the “IC50 (cytostatic activity) on the Vero E6 cells” value is given as “not cytostatic”. For the same compound, the “logPe PAMPA-GI (n = 9)” value in data set [7] was “less than −6.0”.

For `CC1OC(Oc2c(-c3ccc(O)c(O)c3)oc3cc(O)cc(O)c3c2=O)C(O)C(O)C1O` (centres unmarked) [Compound 106, quercetin-3-O-rhamnoside (quercitrin)], the “logPe PAMPA-BBB (n = 9)” value in data set [6] is recorded as “not detected in the acceptor phase”. For the same compound, the “effect on the tumor cell lines” value in data set [5] is reported as “no effect”. Besides, the half-inhibitory concentration (IC50) in data set [3] (Chlorocebus sabaeus, Vero C1008, read-out: IC50 (cytostatic activity) on the Vero E6 cells) turned out to be 15.9 µM. The “logPe PAMPA-GI (n = 9)” value in data set [7] is “not detected in the acceptor phase”.

For the compound `O=C(O)c1cc(O)c(O)c(O)c1` [Compound 14, gallic acid], the concentration for half-maximal inhibition (IC50) in data set [1] (setting [12]) was determined as 71.2 ± 7.9 µM; in data set [2] (setting [13]), 49.8 ± 3.5 µM; in data set [3] (setting [14]), 49.9 ± 2.8 µM; in data set [4] (setting [15]) it was 57.2 ± 4.7 µM. Moreover, the “logPe PAMPA-BBB (n = 9)” value in data set [6] is listed as “not detected in the acceptor phase”. Besides, the “logPe PAMPA-GI (n = 9)” value in data set [7] is “not detected in the acceptor phase”.

Consider `COc1cccc2c1C(=O)c1c(O)c3c(c(O)c1C2=O)C[C@@](O)(C(C)=O)C[C@@H]3O[C@H]1C[C@H](N)[C@H](O)[C@H](C)O1` [Daunomycin, daunomycin, reference compound], for which the half-inhibitory concentration (IC50) in data set [1] (setting [8]) was 0.2 ± 0.05 µM; in data set [2] (setting [9]), 0.7 ± 0.1 µM; in data set [5] (read-out: IC50 value (50% inhibition) in all cell lines), 0.2 to 1.1 µM; in data set [3] (setting [10]) it was 1.1 ± 0.05 µM; in data set [4] (setting [11]), 0.9 ± 0.1 µM.
